Experimental data taken from patent EP2229935A1, “Peptide derivatives or pharmaceutically acceptable salts thereof, method for producing the same, use of said derivatives and pharmaceutical composition” (Nebolsin, Vladimir Evgenievich, priority 1997, dated 1999).
Marks after values point to notes of the source that are not given here.

How the values were obtained:
mongrel white male mice = assay: Delayed type hypersensitivity induced by sheep red blood cells; format: in vivo; conditions: DTH to sheep red blood cells; for Difference in paw masses: 24 hours; for Percent to the control / Reaction index, percent: oral
Experimental: Studies were cartried out on mongrel white male mice with initial body mass 22-24 g. Each group included 10 animals. Mice were sensitized with intravenous injection of the suspension of 2 x 10^5 sheep red blood, cells in 0.05 ml normal saline. By day 5, the suspension of 10^8 sheep red blood cells in 0.05 ml normal saline was injected into the hind paw pad. As a control, the solvent, i.e. normal saline in equivalent amount, was injected. Reaction intensity was assessed in 24 hours by difference in the paw masses of animals. Reaction index = (Mt -Mc)/(Mc)x 100 [formula]
The test compound III was orally administered for three days at doses 50 and 500 µg/kg according to the dosage regimen - days 3, 4 and 5, day 5 - administration of the anaphylaxis-provoking dose.

white mongrel male rats [1] = assay: Carrageenan paw edema, cutaneous gel application (series 2); format: in vivo
Experimental: (§1) Experiment was carried out on white mongrel male rats weighing 280-300 g. Carrageenan-induced edema was caused according to the method of Winter et al. [[inter et al. In: De Rosa M., Giroud J.P., Willoughby D.A. Studies of the mediators of the acute inflammatory reponse induced in rats in different sites by carrageenan and turpentine. […] Paw volume measurement was done using a plethysmograph (Ugo Basile) 1, 3 and 4 hours after carrageenan administration. Inhibition of inflammatory reaction expressed in percent, was calculated according to the formula: 100-[(R-L(exper.))/(L):(R-L(control))/(L)x100](%) [formula] where R - the right paw volume, L - the left paw volume.
Series 2 of experiment. 2% carrageenan solution was injected sublaterally into paws of rats. In 1 minute 0.1 ml of gel comprising the test compounds were applied on the right paw. Gel base consisted of propylene glycol dissolved in the mixture of water and ethanol. Concentration of the compounds in the gel was 1%. Volume of paws was measured 4 hours after carrageenan administration.

superoxide anion-radical = assay: Superoxide anion-radical formation in the xantine-xantine oxidase system (chemiluminescence); format: biochemical
Experimental: Effect of the compounds of general formula (I) on change in chemiluminescence (CL) determined by hydroxyl radical ( OH) and superoxide anion-radical (O2-), in the model chemical and enzymatic systems.
5 to 10 ml of the test compounds dissolved in water were at needed concentration introduced into a cuvette. A total sample volume was 0.5 ml. • B. Superoxide anion-radical in the mixture of xantine and xantine oxidase [Afanas'ev I., Suslova T., Cheremisina Z. et al. Study of antioxidant properties of metal aspartates.
Incubation medium comprised 5 mM KH2PO4; 0.2 IU/ml xantine oxidase. Xantine at concentration 1 mM was introduced into sample through a dispencer. Luceginine (0.2 mM) was used in this system as luminiscence sensitizer.
CL signal indication was performed by its integration every 10 seconds for 5 minutes. CL flash recording duration after mixing ingredients, depended on a particular process kinetics. For each system, CL light sum (mV) was determined in the control samples without preparations (I-) and in samples comprising respective concentrations of preparations (I+). To estimate CL inhibition (activation) degree, the I+/I- ratio (in relative units) was found in the studied systems.
AOF formation and effect of the test compounds on this process were recorded on the Luminometer-1251 instrument (LKB, Sweden).
Because of such "distension" of the kinetic curve, chemiluminescence light sum was recorded during the first 3-5 minutes which reflected a total amount of light quantums produced in the system till achieving the maximum CL intensity values.

[2] = system: Lewis pulmonary carcinoma (LLC); assay: Lewis pulmonary carcinoma growth; format: in vivo; conditions: mice with LLC, day 12
Experimental: Experiments were carried out on male mice with initial body mass 18-20 g. Each group included 10 animals. […] Administration of compounds II, III, IX, X, XII, XIV, XV, XVI, XVII, XIX, XXII, XLVII in drinking water was commenced 24 hours following transplantation and continued till the end of experiment. Effect of the compounds on Lewis rat pulmonary carcinoma (LLC) was estimated by day 12 of experiment by change in tumor volume expressed in mm^3.

white mongrel male rats [3] = assay: Carrageenan paw edema, oral administration (series I); format: in vivo
Experimental: as §1
Series I of experiment. […] The reference drug Naproxene was once administered at a dose 20 µg/kg 1 hour before edema induction. Each group included 10 animals.

[4] = system: peripheral blood neutrophils; assay: Activity of peripheral blood neutrophils in mice with LLC; format: in vivo, C57BL/6 female mice; conditions: compound III 500.0 µg/kg for 10 days
Experimental: Experiments were carried out on C57BL/6 female mice with intramuscularly transplanted LLC carcinoma. Activity of neutrophils was measured by days 11 and 14.
• control - animals with LLC tumor, 10 animals; • animals with LLC tumor + compound III at a dose 500.0 µg/kg for 10 days. 8 animals; • animals with LLC tumor + Cyclophosphane 5 times at a dose 20.0 mg/kg (in 48 hours) for 10 days, 8 animals; • compound III and Cyclophosphane according to the above dosage regimen, 8 animals.
Experiment duration was 14 days.

[5] = system: hepatic P-450 cytochrome system; assay: Hexenal sleep duration in guinea pigs; format: in vivo; conditions: oral 3 days, 50 µg/kg, control 24.76 ± 3.23
Experimental: Change in Hexenal sleep (HS) duration is the in vivo measurable index of hepatic P-450 cytochrome system condition.
Studies were carried out on male mice of the lines BALB/c*h75, C57B1/6, CBA, DBA/2, first generation CBF1 and BDF1 hybrides, with initial mass 18-20 g, each group including 10 mice; and on mongrel male guinea pigs with initial mass 250-300 g, each group including 24 animals. All the test compounds (from II to LII) were administered orally in drinking water and for three days at doses 50 and 500 µg/kg. Hexenal hydrochloride at a dose […] of animal mass was administered 24 hours after the last drug administration, except for line BALB/c*h75 mice, which were administered Hexenal at a dose 60 µg/kg at the same terms, and guinea pigs for which Hexenal dose was 30 µg/kg. HS duration was determined in minutes.

Human lymphocytes = assay: PHA-induced blasttransformation of lymphocytes; format: cell-based
Experimental: Human lymphocytes were used for blasttransformation reaction [Kiseleva E.P., Tsveibakh A.S., Goldman E.I., Pigareva N.V. Application of a micromethod to study blasttransformation of lymphocytes in humans and animals. Immunology (1985), No 1, pp. 76-78]. 10 ml blood were collected into a sterile syringe containing heparine (to final concentration 25 U/ml) and incubated to sediment red blood cells (60-90 minutes at 37°C). Leukocytic suspension layer was selected and the number of nucleated cells was calculated. The cells obtained in such a way were incubated for 72 hours in a humid atmosphere with 5% CO2 at 37°C in the cells of plates for immune reactions in RPMI-1640 medium comprising 15% fetal calf serum, […] Neomycine (incubation mixture volume 0.15 ml). 5 x 10^5 cells were introduced into each plate cell. Incubation was carried out in the presence or absence of mitogen phytohemagglutinin (PHA) (Sigma) […] or concanavalin A (ConA) (Sigma) […] with or without addition of the test compounds at different concentrations. […] H^3 -thymidine in RPMI-1640 medium were introduced into each cell 16 hours before incubation termination. Following culturing period termination, 0.15 ml cellular suspension from each plate cell were transferred on the FN-8 paper filters. Filters were dried, washed two times with normal saline for 5 minutes then twice with TCA for 60 minutes. After drying, radioactivity of samples was calculated on a counter in the ZhS-8 scintillator. Stimulation index was calculated as ratio of sample radioactivity with mitogen to sample radioactivity without mitogen.

[6] = intragastral four times 50 µg/kg

In the case of `O=C(O)CCCC(=O)NCCc1c[nH]cn1` [compound III, N-GLUTARYLHISTAMINE], the “Difference in paw masses” value (mongrel white male mice; oral days 3, 4, 5, 50 µg/kg) is reported as 16.7 ± 1.9 g, the “Difference in paw masses” value (mongrel white male mice; oral days 3, 4, 5, 500 µg/kg) is reported as 17.2 ± 1.3 g and the “Percent to the control” value (mongrel white male mice; 50 µg/kg) is reported as 75.5%. The “Reaction index, percent” value (mongrel white male mice; 50 µg/kg) was 10.3 ± 1.1%, the “Percent to the control” value (mongrel white male mice; 500 µg/kg) was 79.3% and the “Reaction index, percent” value (mongrel white male mice; 500 µg/kg) was 10.8 ± 0.8%. The “Volume of paws (conditional units) Right” value (white mongrel male rats [1]; 0.1 ml of 1% gel on right paw, 4 hours after carrageenan) was 2.13 ± 0.64 conditional units, the “Volume of paws (conditional units) left” value (white mongrel male rats [1]; 1% gel group, left paw, 4 hours) was 1.83 ± 0.21 conditional units and the “Inflammation inhibition (%)” value (white mongrel male rats [1]; 1% gel, 4 hours) was 60%. For the same compound, the Volume increment (white mongrel male rats [1]; 1% gel, 4 hours) was 0.30 ±0.06*^l, the “Chemiluminiscence intensity (mV) + σn-1” value (superoxide anion-radical; 0.1 mM, control of the series as in the table) was 5670 ± 379 mV and the “relative effect: 1+/I-” value (superoxide anion-radical; 1 mM) was 0.72. For the same compound, the “Chemiluminiscence intensity (mV) + σn-1” value (superoxide anion-radical; 1 mM, control of the series 5616 ± 173, 5391 ± 195, 7290 ± 128 or 6776 ± 150) was 4027 ± 683 mV, the Growth inhibition percent ([2]; compound in drinking water) was 53% and the “Tumor volume (mm^3)” value ([2]; compound in drinking water from 24 hours after transplantation) was 1249 ± 168** mm^3. The “Inflammation inhibition (%)” value (white mongrel male rats [3]; [6]) was 30%, the Volume increment (white mongrel male rats [3]; [6]) was 0.49 ± 0.07 and the “Volume of paws (conditional units) left” value (white mongrel male rats [3]; [6]) was 1.23 ± 0.41 conditional units. For the same compound, the “Volume of paws (conditional units) Right” value (white mongrel male rats [3]; intragastral four times 50 µg/kg 72, 48, 24 and 1 hour before) was 1.72 ± 0.27 conditional units, the “Percent of active neutrophils” value ([4]; Background) was 20.1 ± 2.7% and the “Percent of active neutrophils” value ([4]; day 11) was 9.3 ± 1.7%. The “Percent of active neutrophils” value ([4]; day 14) was 15.3 ± 4.3%.

In the case of γ-L-glutamylhistamine [compound XLIV], the “Hexenal sleep duration (minutes)” value [5] is reported as 13.48 ± 1.02* minutes, the “blasttranformation reaction of human lymphocytes induced by PHA” value (Human lymphocytes) is reported as “stimulating effect” and the “Radioactivity, number of pulses for 20 seconds” value (“Radioactivity, number of pulses” for short) (Human lymphocytes; 10^-4 M/l, +PHA) is reported as 3276 ± 225 number of pulses for 20 seconds. For the same compound, the Stimulation index (Human lymphocytes; 10^-4 M/l, +PHA) was 10.9, the “Radioactivity, number of pulses” value (Human lymphocytes; 10^-4 M/l, no mitogen) was 301 ± 103 number of pulses for 20 seconds and the “Radioactivity, number of pulses” value (Human lymphocytes; 10^-5 M/l, +PHA) was 2999 ± 213 number of pulses for 20 seconds. For the same compound, the Stimulation index (Human lymphocytes; 10^-5 M/l, +PHA) was 23.2, the “Radioactivity, number of pulses” value (Human lymphocytes; 10^-5 M/l, no mitogen) was 132 ± 13 number of pulses for 20 seconds and the “Radioactivity, number of pulses” value (Human lymphocytes; 10^-6 M/l, +PHA) was 4414 ± 570 number of pulses for 20 seconds. The Stimulation index (Human lymphocytes; 10^-6 M/l, +PHA) was 29.6, the “Radioactivity, number of pulses” value (Human lymphocytes; 10^-6 M/l, no mitogen) was 150 ± 33 number of pulses for 20 seconds and the “Radioactivity, number of pulses” value (Human lymphocytes; 10^-7 M/l, +PHA) was 2960 ± 210 number of pulses for 20 seconds. For the same compound, the Stimulation index (Human lymphocytes; 10^-7 M/l, +PHA) was 9.9, the “Radioactivity, number of pulses” value (Human lymphocytes; 10^-7 M/l, no mitogen) was 300 ± 107 number of pulses for 20 seconds and the “Radioactivity, number of pulses” value (Human lymphocytes; 10^-8 M/l, +PHA) was 3830 ± 286 number of pulses for 20 seconds. For the same compound, the Stimulation index (Human lymphocytes; 10^-8 M/l, +PHA) was 14.7 and the “Radioactivity, number of pulses” value (Human lymphocytes; 10^-8 M/l, no mitogen) was 261 ± 100 number of pulses for 20 seconds.
